Source: patent publication US9408839B2, “Antipsychotic treatment based on DRD2 or ANKK1 SNP genotype” (Vanda Pharmaceuticals, Inc., priority 2009, dated 2016)

What was measured:
[1] = test system: schizophrenic patients; conditions: cited from earlier work; for improvement on treatment, C/C genotype versus non-C/C genotype: rs6275 SNP; for improvement on treatment, C/C genotype versus non-C/C genotype / time to respond to antipsychotics, -141C Del allele carriers versus -141C Ins allele carriers: schizophrenic patients; for time to respond to antipsychotics, -141C Del allele carriers versus -141C Ins allele carriers: rs1799732 SNP
[2] = test system: patients with an acute exacerbation of schizophrenia; assay: Phase III clinical trial of iloperidone, change from baseline in PANSS-T by DRD2/ANKK1 SNP genotype; assay type: in vivo, human; conditions: iloperidone 24 mg/d; for PANSS-T mean change: day 14, white patients; for mean change in PANSS-T: day 14, white subpopulation
Protocol: The clinical trial evaluated the efficacy of iloperidone in treating patients with diagnosed schizophrenia. The study, its results, and the inferences drawn therefrom are described below.
A four-week, randomized, double-blind, placebo- and ziprasidone-controlled, multicenter inpatient phase III clinical trial of iloperidone was conducted, including 409 individuals, to assess the efficacy of iloperidone, as measured by changes in the Positive and Negative Syndrome Scale Total (PANSS-T).
Patients, all diagnosed with an acute exacerbation of schizophrenia, were randomly assigned to one of three groups. A first group (n=218) received 24 mg/d (12 mg bid) of iloperidone, a second group (n=103) received 160 mg/d (80 mg bid) ziprasidone, and a third group (n=105) received a placebo. Efficacy was measured by a change from baseline in PANSS-T score.

## Cc1nc2n(c(=O)c1CCN1CCC(c3noc4cc(F)ccc34)CC1)CCCC2 [risperidol]
[1]
  improvement on treatment, C/C genotype versus non-C/C genotype: greater improvement

## COc1cc(C(C)=O)ccc1OCCCN1CCC(c2noc3cc(F)ccc23)CC1 [iloperidone, 1-[4-[3-[4-(6-flouro-1,2-benzisoxazol-3-yl)-1-piperidinyl]propoxy]-3-methoxyphenyl]ethanone]
[2]; rs2283265 G/T genotype
  PANSS-T mean change: −2.4 (±3.0)
[2]; rs2283265 non-G/T genotype
  PANSS-T mean change: −11.8 (±2.0)
[2]; rs1800497 (Taq1A) A1/A2 patients
  mean change in PANSS-T: −2.1 (±2.7)
[2]; rs1800497 (Taq1A) non-A1/A2 patients
  mean change in PANSS-T: −12.7 (±2.1)

## CN(C)CCCN1c2ccccc2Sc2ccc(Cl)cc21 [chlorpromazine]
[1]
  time to respond to antipsychotics, -141C Del allele carriers versus -141C Ins allele carriers: significantly longer time to respond

## O=C(CCCN1CCC(O)(c2ccc(Cl)cc2)CC1)c1ccc(F)cc1 [haloperidol]
[1]
  improvement on treatment, C/C genotype versus non-C/C genotype: greater improvement

## Cc1nc2n(c(=O)c1CCN1CCC(c3noc4cc(F)ccc34)CC1)CCCC2 [risperidone]
[1]
  time to respond to antipsychotics, -141C Del allele carriers versus -141C Ins allele carriers: significantly longer time to respond
[1]; rs1799978 SNP, some patients
  response to treatment, -241A allele carriers versus -241G allele carriers: greater response
